US12522583B2, “Benzimidazole derivatives and aza-benzimidazole derivatives as Janus kinase 2 inhibitors and uses thereof” (Dana-Farber Cancer Institute, Inc., priority 2018, dated 2026)

Experiments:
[1] = biological target: JAK2 (Homo sapiens (Human), UniProt O60674); test: JAK2 Z-Lyte biochemical assay
Description: Example 3. JAK2 Z-Lyte Biochemical Assay of the Compounds of the Present Disclosure
The JAK2 Z-Lyte biochemical assay was performed according to manufacturer's instructions (Life Technologies).

[2] = biological target: LTK (Homo sapiens (Human), UniProt P29376); test: KINOMEscan; assay type: binding; settings: read-out: percent control
Description: (§1) Example 2. In Vitro Kinase Selectivity Profiling of the Compounds of the Present Disclosure

[3] = biological target: PIK3CA(E545K) (Homo sapiens (Human), UniProt P42336, E545K); test: KINOMEscan; assay type: binding; settings: read-out: percent control
Description: as §1

[4] = biological target: CSNK1G3 (Homo sapiens (Human), UniProt Q9Y6M4); test: KINOMEscan; assay type: binding; settings: read-out: percent control
Description: as §1

[5] = biological target: SgK110 (Homo sapiens (Human), UniProt P0C264); test: KINOMEscan; assay type: binding; settings: read-out: percent control
Description: as §1

[6] = biological target: RIOK3 (Homo sapiens (Human), UniProt O14730); test: KINOMEscan; assay type: binding; settings: read-out: percent control
Description: as §1

[7] = biological target: EPHB3 (Homo sapiens (Human), UniProt P54753); test: KINOMEscan; assay type: binding; settings: read-out: percent control
Description: as §1

[8] = biological target: LOK (Homo sapiens (Human), UniProt O94804); test: KINOMEscan; assay type: binding; settings: read-out: percent control
Chain of LOK (O94804 whole entry): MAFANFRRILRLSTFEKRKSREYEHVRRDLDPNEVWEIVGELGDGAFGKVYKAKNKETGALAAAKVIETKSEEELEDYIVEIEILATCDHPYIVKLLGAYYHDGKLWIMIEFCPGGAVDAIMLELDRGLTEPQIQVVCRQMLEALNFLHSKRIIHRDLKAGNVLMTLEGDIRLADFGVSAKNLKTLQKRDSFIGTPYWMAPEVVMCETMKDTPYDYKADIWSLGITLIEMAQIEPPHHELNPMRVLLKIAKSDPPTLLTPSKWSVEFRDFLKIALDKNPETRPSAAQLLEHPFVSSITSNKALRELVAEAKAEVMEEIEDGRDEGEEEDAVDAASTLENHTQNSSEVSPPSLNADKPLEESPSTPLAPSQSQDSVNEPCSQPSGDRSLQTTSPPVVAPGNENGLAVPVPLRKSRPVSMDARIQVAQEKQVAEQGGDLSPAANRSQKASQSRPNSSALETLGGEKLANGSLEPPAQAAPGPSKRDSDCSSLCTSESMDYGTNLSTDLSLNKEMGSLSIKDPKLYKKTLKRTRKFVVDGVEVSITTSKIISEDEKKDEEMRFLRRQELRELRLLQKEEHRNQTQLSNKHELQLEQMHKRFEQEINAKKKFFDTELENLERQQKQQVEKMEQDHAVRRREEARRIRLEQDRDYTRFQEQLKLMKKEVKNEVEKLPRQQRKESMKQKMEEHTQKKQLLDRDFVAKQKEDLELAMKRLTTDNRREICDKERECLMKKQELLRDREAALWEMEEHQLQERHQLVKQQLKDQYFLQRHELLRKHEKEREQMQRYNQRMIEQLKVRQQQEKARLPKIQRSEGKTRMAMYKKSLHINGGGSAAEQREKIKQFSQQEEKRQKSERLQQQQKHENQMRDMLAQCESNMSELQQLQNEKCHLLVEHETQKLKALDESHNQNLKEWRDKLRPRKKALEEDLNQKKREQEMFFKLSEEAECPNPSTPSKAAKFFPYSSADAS
Description: as §1

[9] = biological target: RPS6KA5(Kin.Dom.1-terminal) (Homo sapiens (Human), UniProt O75582); test: KINOMEscan; assay type: binding; settings: read-out: percent control
Description: as §1

[10] = biological target: ALK(C1156Y) (Homo sapiens (Human), UniProt Q9UM73, C1156Y); test: KINOMEscan; assay type: binding; settings: read-out: percent control
Chain of ALK(C1156Y) (Q9UM73 19-1620 C1156Y): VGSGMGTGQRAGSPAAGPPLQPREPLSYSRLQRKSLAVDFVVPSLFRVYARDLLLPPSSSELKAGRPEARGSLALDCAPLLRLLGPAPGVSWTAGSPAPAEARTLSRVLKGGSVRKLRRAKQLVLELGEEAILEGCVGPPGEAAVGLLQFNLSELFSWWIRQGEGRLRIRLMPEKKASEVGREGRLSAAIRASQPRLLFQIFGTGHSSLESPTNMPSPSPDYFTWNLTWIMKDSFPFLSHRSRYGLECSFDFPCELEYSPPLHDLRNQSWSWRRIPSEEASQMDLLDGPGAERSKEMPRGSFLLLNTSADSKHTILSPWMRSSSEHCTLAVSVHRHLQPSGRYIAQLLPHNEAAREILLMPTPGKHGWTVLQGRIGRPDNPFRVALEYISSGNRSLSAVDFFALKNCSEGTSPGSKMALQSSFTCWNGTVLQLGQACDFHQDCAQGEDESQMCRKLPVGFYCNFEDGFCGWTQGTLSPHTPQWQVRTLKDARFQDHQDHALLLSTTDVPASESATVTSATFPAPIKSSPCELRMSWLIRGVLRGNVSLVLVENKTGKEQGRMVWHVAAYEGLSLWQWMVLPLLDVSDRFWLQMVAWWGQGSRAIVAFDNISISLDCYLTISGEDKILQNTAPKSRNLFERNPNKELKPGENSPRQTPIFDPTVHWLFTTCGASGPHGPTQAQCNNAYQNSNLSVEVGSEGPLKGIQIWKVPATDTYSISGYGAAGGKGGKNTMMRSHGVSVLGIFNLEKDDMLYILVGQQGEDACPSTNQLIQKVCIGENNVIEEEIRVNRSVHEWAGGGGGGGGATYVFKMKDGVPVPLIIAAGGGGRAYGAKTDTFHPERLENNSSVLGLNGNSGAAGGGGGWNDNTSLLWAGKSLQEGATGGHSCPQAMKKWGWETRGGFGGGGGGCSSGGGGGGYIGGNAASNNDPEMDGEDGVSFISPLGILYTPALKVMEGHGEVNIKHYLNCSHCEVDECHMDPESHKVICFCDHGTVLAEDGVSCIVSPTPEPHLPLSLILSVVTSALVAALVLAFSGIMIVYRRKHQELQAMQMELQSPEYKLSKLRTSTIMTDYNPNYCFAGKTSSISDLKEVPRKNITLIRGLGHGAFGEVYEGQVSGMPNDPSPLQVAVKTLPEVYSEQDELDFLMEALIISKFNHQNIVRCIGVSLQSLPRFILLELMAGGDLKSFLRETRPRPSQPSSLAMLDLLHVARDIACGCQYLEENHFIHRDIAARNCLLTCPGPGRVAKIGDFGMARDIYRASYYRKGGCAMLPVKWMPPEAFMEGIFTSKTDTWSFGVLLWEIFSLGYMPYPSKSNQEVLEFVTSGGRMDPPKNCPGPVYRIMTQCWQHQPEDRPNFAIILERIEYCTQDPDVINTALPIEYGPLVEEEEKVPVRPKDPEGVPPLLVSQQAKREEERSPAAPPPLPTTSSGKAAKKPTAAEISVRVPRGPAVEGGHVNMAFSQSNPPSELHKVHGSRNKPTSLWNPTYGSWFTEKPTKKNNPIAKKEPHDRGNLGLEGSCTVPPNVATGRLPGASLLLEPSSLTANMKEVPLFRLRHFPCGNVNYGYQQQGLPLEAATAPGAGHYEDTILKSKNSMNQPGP
Description: as §1

[11] = biological target: PAK7 (Homo sapiens (Human), UniProt Q9P286); test: KINOMEscan; assay type: binding; settings: read-out: percent control
Chain of PAK7 (Q9P286 whole entry): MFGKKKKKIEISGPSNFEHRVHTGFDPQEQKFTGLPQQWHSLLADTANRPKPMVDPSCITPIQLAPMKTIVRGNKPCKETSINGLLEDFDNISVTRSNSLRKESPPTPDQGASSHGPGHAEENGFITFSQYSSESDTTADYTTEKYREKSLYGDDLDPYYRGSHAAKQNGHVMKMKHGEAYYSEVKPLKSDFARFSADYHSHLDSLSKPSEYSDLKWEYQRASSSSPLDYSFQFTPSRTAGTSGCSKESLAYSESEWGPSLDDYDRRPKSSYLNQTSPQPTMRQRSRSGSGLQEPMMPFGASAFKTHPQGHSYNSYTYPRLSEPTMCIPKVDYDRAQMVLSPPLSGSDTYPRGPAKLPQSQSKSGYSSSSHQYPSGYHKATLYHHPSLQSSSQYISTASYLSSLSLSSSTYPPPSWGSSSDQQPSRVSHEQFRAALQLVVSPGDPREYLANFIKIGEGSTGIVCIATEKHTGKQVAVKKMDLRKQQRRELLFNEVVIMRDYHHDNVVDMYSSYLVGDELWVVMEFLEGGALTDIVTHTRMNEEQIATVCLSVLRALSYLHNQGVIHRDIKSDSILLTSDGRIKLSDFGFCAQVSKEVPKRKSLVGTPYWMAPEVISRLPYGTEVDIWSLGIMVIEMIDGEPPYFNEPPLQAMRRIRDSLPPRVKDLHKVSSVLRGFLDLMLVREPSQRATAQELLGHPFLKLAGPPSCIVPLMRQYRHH
Description: as §1

[12] = biological target: ACVR1 (Homo sapiens (Human), UniProt Q04771); test: KINOMEscan; assay type: binding; settings: read-out: percent control
Description: as §1

[13] = biological target: JAK2(JH1domain-catalytic) (Homo sapiens (Human), UniProt O60674); test: KINOMEscan; assay type: binding; settings: read-out: percent control
Description: as §1

[14] = biological target: CSNK2A2 (Homo sapiens (Human), UniProt P19784); test: KINOMEscan; assay type: binding; settings: read-out: percent control
Description: as §1

[15] = biological target: BRK (Homo sapiens (Human), UniProt Q13882); test: KINOMEscan; assay type: binding; settings: read-out: percent control
Description: as §1

[16] = biological target: ROCK1 (Homo sapiens (Human), UniProt Q13464); test: KINOMEscan; assay type: binding; settings: read-out: percent control
Description: as §1

[17] = biological target: STK39 (Homo sapiens (Human), UniProt Q9UEW8); test: KINOMEscan; assay type: binding; settings: read-out: percent control
Description: as §1

[18] = biological target: CHEK1 (Homo sapiens (Human), UniProt O14757); test: KINOMEscan; assay type: binding; settings: read-out: percent control
Description: as §1

[19] = biological target: MLK2 (Homo sapiens (Human), UniProt Q02779); test: KINOMEscan; assay type: binding; settings: read-out: percent control
Description: as §1

[20] = biological target: PKN2 (Homo sapiens (Human), UniProt Q16513); test: KINOMEscan; assay type: binding; settings: read-out: percent control
Description: as §1

[21] = biological target: PIK3C2B (Homo sapiens (Human), UniProt O00750); test: KINOMEscan; assay type: binding; settings: read-out: percent control
Description: as §1

[22] = biological target: EPHA1 (Homo sapiens (Human), UniProt P21709); test: KINOMEscan; assay type: binding; settings: read-out: percent control
Description: as §1

[23] = biological target: ABL2 (Homo sapiens (Human), UniProt P42684); test: KINOMEscan; assay type: binding; settings: read-out: percent control
Chain of ABL2 (P42684 whole entry): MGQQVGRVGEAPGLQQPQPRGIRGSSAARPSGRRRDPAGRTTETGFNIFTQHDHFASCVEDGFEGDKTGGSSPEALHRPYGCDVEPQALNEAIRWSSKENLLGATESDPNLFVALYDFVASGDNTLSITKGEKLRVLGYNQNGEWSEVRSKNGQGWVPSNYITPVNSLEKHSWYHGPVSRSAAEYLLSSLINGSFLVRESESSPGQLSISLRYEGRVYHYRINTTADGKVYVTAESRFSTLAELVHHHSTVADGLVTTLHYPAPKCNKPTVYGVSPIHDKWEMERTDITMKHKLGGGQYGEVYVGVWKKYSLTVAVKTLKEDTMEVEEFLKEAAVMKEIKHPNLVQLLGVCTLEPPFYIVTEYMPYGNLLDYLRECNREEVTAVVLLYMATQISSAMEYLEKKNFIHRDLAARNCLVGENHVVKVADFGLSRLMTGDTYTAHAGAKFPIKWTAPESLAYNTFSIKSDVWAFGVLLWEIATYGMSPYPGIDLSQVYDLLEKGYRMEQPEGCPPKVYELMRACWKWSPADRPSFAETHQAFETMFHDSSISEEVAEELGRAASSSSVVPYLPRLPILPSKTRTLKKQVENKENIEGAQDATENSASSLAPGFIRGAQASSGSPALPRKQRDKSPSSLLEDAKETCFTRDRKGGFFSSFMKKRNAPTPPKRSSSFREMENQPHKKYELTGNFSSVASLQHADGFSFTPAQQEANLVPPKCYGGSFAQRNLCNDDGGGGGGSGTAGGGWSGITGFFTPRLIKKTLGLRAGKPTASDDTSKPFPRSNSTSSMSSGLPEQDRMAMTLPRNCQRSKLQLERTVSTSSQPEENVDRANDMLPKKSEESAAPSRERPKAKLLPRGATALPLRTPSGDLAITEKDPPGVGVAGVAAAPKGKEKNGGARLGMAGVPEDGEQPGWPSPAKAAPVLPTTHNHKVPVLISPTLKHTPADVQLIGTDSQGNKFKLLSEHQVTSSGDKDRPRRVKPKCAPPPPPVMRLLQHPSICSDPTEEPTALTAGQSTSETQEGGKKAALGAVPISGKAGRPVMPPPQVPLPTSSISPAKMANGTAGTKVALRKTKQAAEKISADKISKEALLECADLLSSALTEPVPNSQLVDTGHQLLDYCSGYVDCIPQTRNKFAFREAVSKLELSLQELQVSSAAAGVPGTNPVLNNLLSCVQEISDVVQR
Description: as §1

[24] = biological target: BRSK1 (Homo sapiens (Human), UniProt Q8TDC3); test: KINOMEscan; assay type: binding; settings: read-out: percent control
Description: as §1

[25] = biological target: EGFR(L858R, T790M) (Homo sapiens (Human), UniProt P00533, L858R/T790M); test: KINOMEscan; assay type: binding; settings: read-out: percent control
Description: as §1

[26] = biological target: YANK3 (Homo sapiens (Human), UniProt Q86UX6); test: KINOMEscan; assay type: binding; settings: read-out: percent control
Chain of YANK3 (Q86UX6 whole entry): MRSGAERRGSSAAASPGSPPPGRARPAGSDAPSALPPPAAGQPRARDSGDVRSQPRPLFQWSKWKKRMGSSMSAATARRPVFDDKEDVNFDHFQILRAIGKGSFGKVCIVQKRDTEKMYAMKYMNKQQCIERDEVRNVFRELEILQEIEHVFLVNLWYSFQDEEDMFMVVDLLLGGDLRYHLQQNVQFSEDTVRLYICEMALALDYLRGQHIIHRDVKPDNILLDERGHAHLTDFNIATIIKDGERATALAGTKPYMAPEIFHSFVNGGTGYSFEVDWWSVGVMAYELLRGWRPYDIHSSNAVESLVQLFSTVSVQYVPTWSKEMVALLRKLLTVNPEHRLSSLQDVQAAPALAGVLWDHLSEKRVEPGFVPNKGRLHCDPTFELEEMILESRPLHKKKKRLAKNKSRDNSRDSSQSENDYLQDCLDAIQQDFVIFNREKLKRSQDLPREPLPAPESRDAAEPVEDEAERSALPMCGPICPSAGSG
Description: as §1

[27] = biological target: PKMYT1 (Homo sapiens (Human), UniProt Q99640); test: KINOMEscan; assay type: binding; settings: read-out: percent control
Description: as §1

Q: Which IC50 [1] does the source give for `CCN1CCN(Cc2ccc(Nc3nc4ccc(Oc5ccnc(NC(C)=O)c5)c(C)c4n3C)cc2C(F)(F)F)CC1` [Compound I-6, N-(4-(2-(4-((4-ethylpiperazin-1-yl)methyl)-3-(trifluoromethyl)phenylamino)-1,7-dimethyl-1H-benzo[d]imidazol-6-yloxy)pyridin-2-yl)acetamide] here?
A: 980 nM

Q: What about the remaining binding at 1 µM [2] of the same compound?
A: 22%

Q: And the remaining binding at 1 µM [3]?
A: 97%

Q: And the remaining binding at 1 µM [4]?
A: 94%

Q: What about the remaining binding at 1 µM [5] of the same compound?
A: 100%

Q: And the remaining binding at 1 µM [6]?
A: 100%

Q: What about the remaining binding at 1 µM [7] of the same compound?
A: 100%

Q: What about the remaining binding at 1 µM [8] of the same compound?
A: 0.45%

Q: And the remaining binding at 1 µM [9]?
A: 74%

Q: And the remaining binding at 1 µM [10]?
A: 92%

Q: And the remaining binding at 1 µM [11]?
A: 16%

Q: And the remaining binding at 1 µM [12]?
A: 100%

Q: And the remaining binding at 1 µM [13]?
A: 29%

Q: And the remaining binding at 1 µM [14]?
A: 100%

Q: What about the remaining binding at 1 µM [15] of the same compound?
A: 89%

Q: What about the remaining binding at 1 µM [16] of the same compound?
A: 83%

Q: And the remaining binding at 1 µM [17]?
A: 93%

Q: And the remaining binding at 1 µM [18]?
A: 100%

Q: And the remaining binding at 1 µM [19]?
A: 95%

Q: And the remaining binding at 1 µM [20]?
A: 93%

Q: What about the remaining binding at 1 µM [21] of the same compound?
A: 97%

Q: And the remaining binding at 1 µM [22]?
A: 46%

Q: And the remaining binding at 1 µM [23]?
A: 5.3%

Q: What about the remaining binding at 1 µM [24] of the same compound?
A: 100%

Q: What about the remaining binding at 1 µM [25] of the same compound?
A: 100%

Q: What about the remaining binding at 1 µM [26] of the same compound?
A: 89%

Q: What about the remaining binding at 1 µM [27] of the same compound?
A: 90%

Q: `CCN1CCN(Cc2ccc(Nc3nc4ccc(Oc5ccnc(NC(C)=O)c5)cc4n3C)cc2C(F)(F)F)CC1` [Compound I-2] was tested. Which IC50 [1] did it give?
A: 794 nM

Q: And the remaining binding at 1 µM [2]?
A: 61%

Q: What about the remaining binding at 1 µM [3] of the same compound?
A: 80%

Q: And the remaining binding at 1 µM [4]?
A: 89%

Q: What about the remaining binding at 1 µM [5] of the same compound?
A: 86%

Q: And the remaining binding at 1 µM [6]?
A: 22%

Q: And the remaining binding at 1 µM [7]?
A: 96%

Q: What about the remaining binding at 1 µM [8] of the same compound?
A: 21%

Q: And the remaining binding at 1 µM [9]?
A: 96%

Q: What about the remaining binding at 1 µM [10] of the same compound?
A: 96%

Q: And the remaining binding at 1 µM [11]?
A: 86%

Q: What about the remaining binding at 1 µM [12] of the same compound?
A: 99%

Q: And the remaining binding at 1 µM [13]?
A: 16%

Q: What about the remaining binding at 1 µM [14] of the same compound?
A: 82%

Q: What about the remaining binding at 1 µM [15] of the same compound?
A: 100%

Q: What about the remaining binding at 1 µM [16] of the same compound?
A: 100%

Q: What about the remaining binding at 1 µM [17] of the same compound?
A: 62%

Q: And the remaining binding at 1 µM [18]?
A: 100%

Q: What about the remaining binding at 1 µM [19] of the same compound?
A: 100%

Q: What about the remaining binding at 1 µM [20] of the same compound?
A: 100%

Q: And the remaining binding at 1 µM [21]?
A: 85%

Q: And the remaining binding at 1 µM [22]?
A: 100%

Q: What about the remaining binding at 1 µM [23] of the same compound?
A: 32%

Q: And the remaining binding at 1 µM [24]?
A: 100%

Q: What about the remaining binding at 1 µM [25] of the same compound?
A: 100%

Q: What about the remaining binding at 1 µM [26] of the same compound?
A: 100%

Q: What about the remaining binding at 1 µM [27] of the same compound?
A: 91%
